Assay results from patent publication US9549932B2, “2-(morpholin-4-yl)-1,7-naphthyridines” (BAYER PHARMA AKTIENGESELLSCHAFT, priority 2014, dated 2017).
Like-named read-outs stand apart in the source and are kept apart here.

Molecular target: full-length human ATR protein (Homo sapiens (Human), UniProt Q13535)
Assay: Binding assay ATR (TR-FRET tracer displacement)
Details: TR-FRET
Text: To determine of binding activity of the test compounds, full-length human ATR protein was expressed and purified together with ATRIP as described above. Furthermore, a fluorescently labelled compound (either tracer A or B as described above) was used as a tracer molecule. Detection of the binding event of the tracer was achieved by time-resolved fluorescence energy transfer (TR-FRET). We used an anti-GST-Terbium antibody (CisBio) that binds to the GST-tag at the N-terminus of ATR-kinase. […] Displacement of the fluorescent tracer by a test compound leads to a reduction of the TR-FRET-signal.
For the assay 50 nl of a 100-fold concentrated solution of the test compound in DMSO was pipetted into a black low volume 384well microtiter plate (MTP, Greiner Bio-One, Frickenhausen, Germany). […] The ATR-working solution was incubated for 30 min at 22° C. prior to dispensing to pre-form the complex of antiGST-Tb+GST-ATR+ATRIP. Then, 3 μl of the ATR-working solution were added to the test compound and the mixture was incubated for 10 min at 22° C. to allow pre-binding of the test compounds to ATR/ATRIP. Then, 2 μl of a 100 nM solution of either tracer A or B in assay buffer were added to the ATR-working solution. The resulting mixture was incubated for 30 min at 22° C. […] The dilution series were prepared separately before the assay on the level of the 100 fold concentrated solutions in DMSO by serial 1:3.4 dilutions in duplicate values for each concentration. IC50 values were calculated by a 4 parameter fit using standard software (GraphPad prism or equivalent).

[1] = tracer A, read-out: ATR binding (tracer A) IC50
[2] = tracer B, read-out: ATR binding (tracer B) IC50

Sequence of full-length human ATR protein (Q13535 other isoform, or with tags, fused parts or gaps): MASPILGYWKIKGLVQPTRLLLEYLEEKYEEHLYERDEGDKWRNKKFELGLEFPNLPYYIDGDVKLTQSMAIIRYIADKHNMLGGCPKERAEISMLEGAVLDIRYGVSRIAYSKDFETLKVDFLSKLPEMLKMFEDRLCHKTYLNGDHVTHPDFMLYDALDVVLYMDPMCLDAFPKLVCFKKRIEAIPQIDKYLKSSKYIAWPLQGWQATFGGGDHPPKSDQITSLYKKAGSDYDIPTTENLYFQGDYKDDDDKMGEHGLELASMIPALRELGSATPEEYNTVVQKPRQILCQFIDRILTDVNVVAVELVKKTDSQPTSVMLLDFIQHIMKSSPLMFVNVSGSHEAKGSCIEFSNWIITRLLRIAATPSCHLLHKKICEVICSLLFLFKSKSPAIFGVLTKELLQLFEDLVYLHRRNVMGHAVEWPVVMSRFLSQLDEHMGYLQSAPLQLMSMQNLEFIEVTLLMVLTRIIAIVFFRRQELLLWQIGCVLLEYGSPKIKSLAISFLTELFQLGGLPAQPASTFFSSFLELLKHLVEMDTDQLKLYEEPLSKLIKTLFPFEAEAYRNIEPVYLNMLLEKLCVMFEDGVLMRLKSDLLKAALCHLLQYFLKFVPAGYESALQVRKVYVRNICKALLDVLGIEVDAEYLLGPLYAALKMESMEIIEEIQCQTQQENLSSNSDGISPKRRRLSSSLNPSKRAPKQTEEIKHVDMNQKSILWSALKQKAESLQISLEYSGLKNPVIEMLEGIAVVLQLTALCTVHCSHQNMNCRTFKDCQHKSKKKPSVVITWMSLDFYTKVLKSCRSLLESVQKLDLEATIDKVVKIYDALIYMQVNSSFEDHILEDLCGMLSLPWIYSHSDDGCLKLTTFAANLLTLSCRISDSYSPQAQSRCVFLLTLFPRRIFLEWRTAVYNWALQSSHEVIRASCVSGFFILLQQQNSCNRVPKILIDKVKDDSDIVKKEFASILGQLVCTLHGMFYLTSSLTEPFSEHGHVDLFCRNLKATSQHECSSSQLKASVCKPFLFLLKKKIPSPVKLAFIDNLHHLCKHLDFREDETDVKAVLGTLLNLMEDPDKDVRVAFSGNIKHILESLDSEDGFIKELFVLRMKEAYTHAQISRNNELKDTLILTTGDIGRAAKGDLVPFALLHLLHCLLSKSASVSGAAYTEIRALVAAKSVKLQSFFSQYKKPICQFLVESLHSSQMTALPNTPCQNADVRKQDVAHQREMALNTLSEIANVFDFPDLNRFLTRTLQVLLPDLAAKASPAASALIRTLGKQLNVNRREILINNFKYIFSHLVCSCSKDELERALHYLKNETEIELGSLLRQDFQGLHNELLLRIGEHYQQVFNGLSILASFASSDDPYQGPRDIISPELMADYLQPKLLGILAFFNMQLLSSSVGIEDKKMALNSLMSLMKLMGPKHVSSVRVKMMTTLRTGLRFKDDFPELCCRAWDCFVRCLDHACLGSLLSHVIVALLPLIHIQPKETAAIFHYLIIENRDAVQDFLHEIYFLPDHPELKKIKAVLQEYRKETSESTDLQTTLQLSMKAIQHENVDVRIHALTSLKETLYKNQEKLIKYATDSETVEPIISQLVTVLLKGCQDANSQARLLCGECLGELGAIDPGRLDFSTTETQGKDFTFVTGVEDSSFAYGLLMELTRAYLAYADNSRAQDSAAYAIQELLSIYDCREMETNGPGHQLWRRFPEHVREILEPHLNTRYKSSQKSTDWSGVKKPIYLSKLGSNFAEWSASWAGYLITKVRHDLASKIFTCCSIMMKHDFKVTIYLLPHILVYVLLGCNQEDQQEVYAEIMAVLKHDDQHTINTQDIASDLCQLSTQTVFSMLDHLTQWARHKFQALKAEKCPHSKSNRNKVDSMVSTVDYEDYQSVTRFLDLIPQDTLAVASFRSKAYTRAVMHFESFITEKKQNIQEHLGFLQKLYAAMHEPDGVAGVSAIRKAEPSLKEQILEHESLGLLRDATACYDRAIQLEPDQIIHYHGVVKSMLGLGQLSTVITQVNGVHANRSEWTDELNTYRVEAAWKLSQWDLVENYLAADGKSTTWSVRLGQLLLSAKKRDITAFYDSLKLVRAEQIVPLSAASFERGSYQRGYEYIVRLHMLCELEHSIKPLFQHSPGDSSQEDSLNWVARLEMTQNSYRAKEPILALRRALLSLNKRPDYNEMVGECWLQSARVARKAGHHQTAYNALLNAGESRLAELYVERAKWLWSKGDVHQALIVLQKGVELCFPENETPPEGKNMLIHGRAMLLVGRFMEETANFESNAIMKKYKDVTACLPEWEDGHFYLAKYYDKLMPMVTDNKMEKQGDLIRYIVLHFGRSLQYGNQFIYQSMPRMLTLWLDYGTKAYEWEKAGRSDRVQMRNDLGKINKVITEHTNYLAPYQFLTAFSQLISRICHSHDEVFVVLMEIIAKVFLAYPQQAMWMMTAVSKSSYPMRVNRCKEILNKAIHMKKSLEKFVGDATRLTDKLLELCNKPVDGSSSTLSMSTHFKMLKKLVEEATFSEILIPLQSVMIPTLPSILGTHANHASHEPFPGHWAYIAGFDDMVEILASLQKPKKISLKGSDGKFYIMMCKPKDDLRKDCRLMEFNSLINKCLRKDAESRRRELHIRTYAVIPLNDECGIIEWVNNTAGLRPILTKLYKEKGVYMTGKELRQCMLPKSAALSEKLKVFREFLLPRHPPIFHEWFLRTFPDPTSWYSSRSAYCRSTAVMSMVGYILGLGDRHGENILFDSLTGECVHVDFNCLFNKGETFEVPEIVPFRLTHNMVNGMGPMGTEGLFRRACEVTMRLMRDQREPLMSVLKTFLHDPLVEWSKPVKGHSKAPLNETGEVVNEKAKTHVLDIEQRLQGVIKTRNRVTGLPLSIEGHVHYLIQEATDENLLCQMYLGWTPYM
Sequence of full-length human ATR protein (Q8WXE1 other isoform, or with tags, fused parts or gaps partner): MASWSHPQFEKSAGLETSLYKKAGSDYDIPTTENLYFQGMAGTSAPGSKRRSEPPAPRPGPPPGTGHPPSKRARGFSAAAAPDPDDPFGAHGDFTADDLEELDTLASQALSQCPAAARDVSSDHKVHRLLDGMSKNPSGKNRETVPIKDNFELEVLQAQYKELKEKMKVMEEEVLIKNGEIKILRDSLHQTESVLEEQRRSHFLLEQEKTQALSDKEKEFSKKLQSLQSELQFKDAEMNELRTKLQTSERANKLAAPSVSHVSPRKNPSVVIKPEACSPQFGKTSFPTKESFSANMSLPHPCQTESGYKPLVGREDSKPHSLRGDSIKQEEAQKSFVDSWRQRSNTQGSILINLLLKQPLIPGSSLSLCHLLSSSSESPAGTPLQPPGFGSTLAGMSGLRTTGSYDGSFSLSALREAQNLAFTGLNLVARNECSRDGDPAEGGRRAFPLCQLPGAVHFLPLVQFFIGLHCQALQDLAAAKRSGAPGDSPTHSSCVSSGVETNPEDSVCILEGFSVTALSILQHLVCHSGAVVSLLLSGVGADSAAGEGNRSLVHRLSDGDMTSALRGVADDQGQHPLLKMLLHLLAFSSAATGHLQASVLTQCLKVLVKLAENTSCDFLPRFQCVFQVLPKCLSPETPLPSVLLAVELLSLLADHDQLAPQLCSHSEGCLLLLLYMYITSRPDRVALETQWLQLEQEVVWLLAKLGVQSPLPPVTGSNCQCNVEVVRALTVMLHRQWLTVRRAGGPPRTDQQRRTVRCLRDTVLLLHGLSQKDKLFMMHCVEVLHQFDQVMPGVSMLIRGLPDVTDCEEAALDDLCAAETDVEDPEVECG

Compound C[C@@H]1COCCN1c1cc(-c2ccc(N3CCNCC3)cc2F)c2ccnc(-c3ccn[nH]3)c2n1 [Example 81, 4-[2-fluoro-4-(piperazin-1-yl)phenyl]-2-[(3R)-3-methylmorpholin-4-yl]-8-(1H-pyrazol-5-yl)-1,7-naphthyridine] has an IC50 [1] of 14.3 nM.
C[C@@H]1COCCN1c1cc(-c2cncc(Cl)c2)c2ccnc(-c3ccn[nH]3)c2n1 [Example 130, 4-(5-chloropyridin-3-yl)-2-[(3R)-3-methylmorpholin-4-yl]-8-(1H-pyrazol-5-yl)-1,7-naphthyridine] gave an IC50 [1] of 21.6 nM.
Compound C[C@@H]1COCCN1c1cc(-c2c[nH]nc2C(F)(F)F)c2ccnc(-c3ccn[nH]3)c2n1 [Example 252, 2-[(3R)-3-methylmorpholin-4-yl]-8-(1H-pyrazol-5-yl)-4-[3-(trifluoromethyl)-1H-pyrazol-4-yl]-1,7-naphthyridine] has an IC50 [1] of 6.45 nM.
Compound CC(C)[S+]([O-])c1cc(N2CCOCC2)nc2c(-c3ccn[nH]3)nccc12 (stereo not drawn) [Example 196, 2-(morpholin-4-yl)-4-[propan-2-ylsulfinyl]-8-(1H-pyrazol-5-yl)-1,7-naphthyridine] has an IC50 [1] of 72.6 nM.
For c1cc(-c2nccc3c(-c4cnc(NC5CC5)nc4)cc(N4CCOCC4)nc23)[nH]n1 [Example 396, N-cyclopropyl-5-[2-(morpholin-4-yl)-8-(1H-pyrazol-5-yl)-1,7-naphthyridin-4-yl]pyrimidin-2-amine], the IC50 [1] was 174 nM.
COc1cnccc1-c1cc(N2CCOC[C@H]2C)nc2c(-c3ccn[nH]3)nccc12 [Example 227, 4-(3-methoxypyridin-4-yl)-2-[(3R)-3-methylmorpholin-4-yl]-8-(1H-pyrazol-5-yl)-1,7-naphthyridine] gave an IC50 [1] of 75.5 nM.
Work on CS(=N)(=O)c1cccc(-c2cc(N3CCOCC3)nc3c(-c4ccn[nH]4)nccc23)c1 (stereo not drawn) [Example 19] yielded an IC50 [1] of 293 nM and an IC50 [2] of 181 nM.
CC(C)Sc1cc(N2CCOCC2)nc2c(-c3ccn[nH]3)nccc12 [Example 210, 2-(morpholin-4-yl)-4-(propan-2-ylsulfanyl)-8-(1H-pyrazol-5-yl)-1,7-naphthyridine] showed an IC50 [1] of 231 nM.
C[C@@H]1CN(c2cc(N3CCOCC3)nc3c(-c4ccn[nH]4)nccc23)CCO1 [Example 162, 4-[(2R)-2-methylmorpholin-4-yl]-2-(morpholin-4-yl)-8-(1H-pyrazol-5-yl)-1,7-naphthyridine] was tested, and the IC50 [1] was 100 nM.
Work on COc1cccc(-c2cc(N3CCOCC3)nc3c(-c4ccn[nH]4)nccc23)c1 [Example 306, 4-(3-methoxyphenyl)-2-(morpholin-4-yl)-8-(1H-pyrazol-5-yl)-1,7-naphthyridine] yielded an IC50 [1] of 82.3 nM.
For C/C=C/c1cc(N2CCOCC2)nc2c(-c3ccn[nH]3)nccc12 [Example 325, 2-(morpholin-4-yl)-4-[(1E)-prop-1-en-1-yl]-8-(1H-pyrazol-5-yl)-1,7-naphthyridine], the IC50 [1] was 34.4 nM.
For CC(C)(C)n1cc(-c2cc(N3CCOCC3)nc3c(-c4ccn[nH]4)nccc23)cn1 [Example 407, 4-(1-tert-butyl-1H-pyrazol-4-yl)-2-(morpholin-4-yl)-8-(1H-pyrazol-5-yl)-1,7-naphthyridine], the IC50 [1] was 309 nM.
For Cc1cscc1-c1cc(N2CCOC[C@H]2C)nc2c(-c3ccn[nH]3)nccc12 [Example 101, 2-[(3R)-3-methylmorpholin-4-yl]-4-(4-methyl-3-thienyl)-8-(1H-pyrazol-5-yl)-1,7-naphthyridine], the IC50 [1] was 11.3 nM.
For C[C@@H]1COCCN1c1cc(P(C)(C)=O)c2ccnc(-c3ccn[nH]3)c2n1 [Example 142, 4-(dimethylphosphoryl)-2-[(3R)-3-methylmorpholin-4-yl]-8-(1H-pyrazol-5-yl)-1,7-naphthyridine], the IC50 [1] was 44.1 nM.
Compound CSc1cncc(-c2cc(N3CCOCC3)nc3c(-c4ccn[nH]4)nccc23)c1 [Example 400, 4-[5-(methylsulfanyl)pyridin-3-yl]-2-(morpholin-4-yl)-8-(1H-pyrazol-5-yl)-1,7-naphthyridine] has an IC50 [1] of 300 nM.
In the case of Cc1cc(COc2cc(N3CCOCC3)nc3c(-c4ccn[nH]4)nccc23)on1 [Example 48, 4-[(3-methyl-1,2-oxazol-5-yl)methoxy]-2-(morpholin-4-yl)-8-(1H-pyrazol-5-yl)-1,7-naphthyridine], the IC50 [1] is reported as 161 nM.
O=C(c1cccc(-c2cc(N3CCOCC3)nc3c(-c4ccn[nH]4)nccc23)c1)N1CCCCC1 [Example 328, {3-[2-(morpholin-4-yl)-8-(1H-pyrazol-5-yl)-1,7-naphthyridin-4-yl]phenyl}(piperidin-1-yl)methanone] was tested, and the IC50 [1] was 296 nM.
COc1cc(OC)cc(-c2cc(N3CCOCC3)nc3c(-c4ccn[nH]4)nccc23)c1 [Example 307, 4-(3,5-dimethoxyphenyl)-2-(morpholin-4-yl)-8-(1H-pyrazol-5-yl)-1,7-naphthyridine] gave an IC50 [1] of 189 nM.
For CP(C)(=O)c1cc(N2CCOCC2)nc2c(-c3ccn[nH]3)nccc12 [Example 177, 4-(dimethylphosphoryl)-2-(morpholin-4-yl)-8-(1H-pyrazol-5-yl)-1,7-naphthyridine], the IC50 [1] was 250 nM.
Cc1ccnc(F)c1-c1cc(N2CCOC[C@H]2C)nc2c(-c3ccn[nH]3)nccc12 [Example 90, 4-(2-fluoro-4-methylpyridin-3-yl)-2-[(3R)-3-methylmorpholin-4-yl]-8-(1H-pyrazol-5-yl)-1,7-naphthyridine] was tested, and the IC50 [1] was 10.6 nM.
For c1cncc(-c2cc(N3CCOCC3)nc3c(-c4ccn[nH]4)nccc23)c1 [Example 350, 2-(morpholin-4-yl)-8-(1H-pyrazol-5-yl)-4-(pyridin-3-yl)-1,7-naphthyridine], the IC50 [1] was 162 nM.
In the case of COc1cc(-c2cc(N3CCOCC3)nc3c(-c4ccn[nH]4)nccc23)ccn1 [Example 351, 4-(2-methoxypyridin-4-yl)-2-(morpholin-4-yl)-8-(1H-pyrazol-5-yl)-1,7-naphthyridine], the IC50 [1] is reported as 154 nM.
Work on Oc1ccc(-c2cc(N3CCOCC3)nc3c(-c4ccn[nH]4)nccc23)cn1 [Example 390, 5-[2-(morpholin-4-yl)-8-(1H-pyrazol-5-yl)-1,7-naphthyridin-4-yl]pyridin-2-ol] yielded an IC50 [1] of 663 nM.
For C[C@H]1CN(c2cc(N3CCOCC3)nc3c(-c4ccn[nH]4)nccc23)CCO1 [Example 170, 4-[(2S)-2-methylmorpholin-4-yl]-2-(morpholin-4-yl)-8-(1H-pyrazol-5-yl)-1,7-naphthyridine], the IC50 [1] was 168 nM.
In the case of CC(C)Oc1cc(N2CCOCC2)nc2c(-c3cc[nH]c3)nccc12 [Example 68, 2-(morpholin-4-yl)-4-(propan-2-yloxy)-8-(1H-pyrrol-3-yl)-1,7-naphthyridine], the IC50 [1] is reported as 589 nM and the IC50 [2] is reported as 472 nM.
Cc1cscc1-c1cc(N2CCOCC2)nc2c(-c3ccn[nH]3)nccc12 [Example 370, 4-(4-methylthiophen-3-yl)-2-(morpholin-4-yl)-8-(1H-pyrazol-5-yl)-1,7-naphthyridine] was tested, and the IC50 [1] was 35 nM.
Work on CC(C)Oc1cc(N2CCOC[C@@H]2C)nc2c(-c3cc[nH]n3)nccc12 [Example 67, 4-isopropoxy-2-((S)-3-methylmorpholin-4-yl)-8-(1H-pyrazol-3-yl)-[1,7]naphthyridine] yielded an IC50 [1] of 1000 nM and an IC50 [2] of 1270 nM.
C[C@@H]1COCCN1c1cc(C2CCS(=O)(=O)CC2)c2ccnc(-c3ccn[nH]3)c2n1 [Example 204, 4-(1,1-dioxidotetrahydro-2H-thiopyran-4-yl)-2-[(3R)-3-methylmorpholin-4-yl]-8-(1H-pyrazol-5-yl)-1,7-naphthyridine] gave an IC50 [1] of 6.76 nM.
Work on CCn1nc(C)cc1-c1cc(N2CCOC[C@H]2C)nc2c(-c3ccn[nH]3)nccc12 [Example 113, 4-(1-ethyl-3-methyl-1H-pyrazol-5-yl)-2-[(3R)-3-methylmorpholin-4-yl]-8-(1H-pyrazol-5-yl)-1,7-naphthyridine] yielded an IC50 [1] of 5.71 nM.
COc1ccc(F)c(-c2cc(N3CCOCC3)nc3c(-c4ccn[nH]4)nccc23)c1 [Example 338, 4-(2-fluoro-5-methoxyphenyl)-2-(morpholin-4-yl)-8-(1H-pyrazol-5-yl)-1,7-naphthyridine] showed an IC50 [1] of 103 nM.
With Fc1ccc(-c2cc(N3CCOCC3)nc3c(-c4ccn[nH]4)nccc23)c(F)n1 [Example 366, 4-(2,6-difluoropyridin-3-yl)-2-(morpholin-4-yl)-8-(1H-pyrazol-5-yl)-1,7-naphthyridine] the IC50 [1] was 52.1 nM.
With COP(=O)(OC)c1ccc(-c2cc(N3CCOCC3)nc3c(-c4ccn[nH]4)nccc23)cc1 [Example 9, Dimethyl {4-[2-(morpholin-4-yl)-8-(1H-pyrazol-5-yl)-1,7-naphthyridin-4-yl]phenyl}phosphonate] the IC50 [1] was 120 nM and the IC50 [2] was 127 nM.
For Cc1cc(-c2cc(N3CCOCC3)nc3c(-c4ccn[nH]4)nccc23)cnc1S(C)(=O)=O [Example 16, 4-[5-methyl-6-(methylsulfonyl)pyridin-3-yl]-2-(morpholin-4-yl)-8-(1H-pyrazol-5-yl)-1,7-naphthyridine], the IC50 [1] was 173 nM.
With Cc1ccsc1-c1cc(N2CCOC[C@H]2C)nc2c(-c3ccn[nH]3)nccc12 [Example 99, 2-[(3R)-3-methylmorpholin-4-yl]-4-(3-methyl-2-thienyl)-8-(1H-pyrazol-5-yl)-1,7-naphthyridine] the IC50 [1] was 6.38 nM.
Work on C[C@@H]1COCCN1c1cc(-c2cccc(F)n2)c2ccnc(-c3ccn[nH]3)c2n1 [Example 152, 4-(6-fluoropyridin-2-yl)-2-[(3R)-3-methylmorpholin-4-yl]-8-(1H-pyrazol-5-yl)-1,7-naphthyridine] yielded an IC50 [1] of 51.8 nM.
